According to ChEMBL document CHEMBL1212831, “Discovery of N-[(2S)-5-(6-fluoro-3-pyridinyl)-2,3-dihydro-1H-inden-2-yl]-2-propanesulfonamide, a novel clinical AMPA receptor positive modulator” (J Med Chem, 2010):
In brackets after ≈: the same amount, converted by molar mass. Activity calls are given as the source filed them. The rule behind the calls is not given here.

What was measured:
[1] = Volume of distribution at steady state in Beagle dog at 0.125 mg/kg, iv and 0.5 mg/kg, po; assay type: ADME, organism-based, Canis lupus familiaris; settings: in vivo, read-out: Vdss
Rattus norvegicus [2] = assay: Antiamnesic activity in po dosed assessed as inhibition of amnesic deficit by step-down passive avoidance test; assay type: functional, organism-based; settings: Wistar
[3] = Oral bioavailability in cynomolgus monkey at 0.5 mg/kg; assay type: ADME, organism-based, Macaca fascicularis; settings: in vivo
Glutamate receptor 2 [4] = molecular target: T1, Glutamate receptor 2 (Homo sapiens, UniProt P42262); assay: Activation of human recombinant GluR2 flip isoform expressed in HEK293 cells assessed as increase of glutamate-induced inward current by whole cell voltage-clamp electrophysiology; assay type: cell-based
[5] = Half life in cynomolgus monkey at 0.125 mg/kg, iv; assay type: ADME, organism-based, Macaca fascicularis; set-up: dose 0.125 mg/kg, route intravenous; settings: in vivo
[6] = Half life in Sprague-Dawley rat at 3 mg/kg, po; assay type: ADME, organism-based; set-up: dose 3 mg/kg, route oral; settings: in vivo
Cytochrome P450 2D6 = Cytochrome P450 2D6 (Homo sapiens, UniProt P10635)
Description: Inhibition of human CYP2D6 after 10 mins

Blood = assay: Drug level in po dosed Lister Hooded rat blood; assay type: ADME, organism-based; settings: in vivo
[7] = Plasma protein binding in dog at 1 ug/ml after 6 hrs by equilibrium dialysis method; assay type: ADME, cell-free, Canis lupus familiaris; settings: read-out: PPB (converted)
[8] = Equilibrium solubility of the compound in simulated gastric fluid at pH 2 to 10; assay type: physicochemical
[9] = Cmax in cynomolgus monkey at 0.5 mg/kg, po; assay type: ADME, organism-based, Macaca fascicularis; set-up: dose 0.5 mg/kg, route oral; settings: in vivo
Cytochrome P450 1A2 = molecular target: T2, Cytochrome P450 1A2 (Homo sapiens, UniProt P05177)
T2 sequence (P05177 whole entry): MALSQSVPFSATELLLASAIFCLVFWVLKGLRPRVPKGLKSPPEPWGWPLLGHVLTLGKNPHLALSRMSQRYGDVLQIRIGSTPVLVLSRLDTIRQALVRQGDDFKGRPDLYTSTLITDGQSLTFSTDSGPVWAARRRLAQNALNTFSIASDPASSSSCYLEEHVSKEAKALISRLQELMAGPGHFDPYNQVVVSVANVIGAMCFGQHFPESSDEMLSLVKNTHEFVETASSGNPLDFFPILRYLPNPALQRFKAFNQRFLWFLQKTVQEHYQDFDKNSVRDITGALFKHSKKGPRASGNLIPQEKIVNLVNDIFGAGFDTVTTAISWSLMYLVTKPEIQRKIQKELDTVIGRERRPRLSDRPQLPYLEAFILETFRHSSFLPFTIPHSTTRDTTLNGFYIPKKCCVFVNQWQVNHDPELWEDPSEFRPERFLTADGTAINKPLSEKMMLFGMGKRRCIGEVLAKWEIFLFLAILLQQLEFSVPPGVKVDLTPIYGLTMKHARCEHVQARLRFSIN
Description: Inhibition of human CYP1A2 after 10 mins

[10] = Half life in Sprague-Dawley rat at 1 mg/kg, iv; assay type: ADME, organism-based; set-up: dose 1 mg/kg, route intravenous; settings: in vivo
[11] = Equilibrium solubility of the compound in fasted simulated intestinal fluid at pH 2 to 10; assay type: physicochemical
Homo sapiens [12] = assay: Toxicity in human at 0.1 mg/kg QD for 28 days; assay type: organism-based; set-up: dose 0.1 mg/kg; settings: in vivo, 672 h
[13] = Volume of distribution at steady state in Sprague-Dawley rat at 1 mg/kg, iv and 3 mg/kg, po; assay type: ADME, organism-based; settings: in vivo, read-out: Vdss
[14] = Equilibrium solubility of the compound in fed simulated intestinal fluid at pH 2 to 10; assay type: physicochemical
[15] = Blood clearance in Beagle dog at 0.125 mg/kg, iv and 0.5 mg/kg, po; assay type: ADME, organism-based, Canis lupus familiaris
[16] = Half life in Sprague-Dawley rat at 1 mg/kg, iv and 3 mg/kg, po; assay type: ADME, organism-based; settings: in vivo
[17] = Oral bioavailability in Sprague-Dawley rat at 3 mg/kg; assay type: ADME, organism-based; settings: in vivo
[18] = Tmax in Sprague-Dawley rat at 3 mg/kg, po; assay type: ADME, organism-based; set-up: dose 3 mg/kg, route oral; settings: in vivo
[19] = Plasma protein binding in monkey at 1 ug/ml after 6 hrs by equilibrium dialysis method; assay type: ADME, cell-free, Macaca mulatta; settings: rhesus monkey, read-out: PPB (converted)
[20] = molecular target: T3, Nuclear receptor subfamily 1 group I member 2 (Rattus norvegicus, UniProt Q9R1A7); assay: Activation of rat PXR
T3 sequence (Q9R1A7 whole entry): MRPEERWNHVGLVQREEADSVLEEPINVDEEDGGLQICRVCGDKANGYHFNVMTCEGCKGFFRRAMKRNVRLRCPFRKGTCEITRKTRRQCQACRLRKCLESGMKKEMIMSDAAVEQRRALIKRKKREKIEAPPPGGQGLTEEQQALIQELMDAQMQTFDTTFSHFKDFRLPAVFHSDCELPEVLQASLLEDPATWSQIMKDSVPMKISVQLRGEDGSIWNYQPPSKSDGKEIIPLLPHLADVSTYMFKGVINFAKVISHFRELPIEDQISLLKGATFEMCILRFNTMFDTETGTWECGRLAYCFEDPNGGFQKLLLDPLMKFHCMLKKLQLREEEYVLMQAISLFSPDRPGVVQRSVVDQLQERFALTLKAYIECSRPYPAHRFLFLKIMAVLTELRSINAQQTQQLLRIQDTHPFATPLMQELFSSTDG

[21] = Apparent half life in human; assay type: ADME, organism-based; settings: in vivo, read-out: beta t1/2 (converted)
Rattus norvegicus [22] = assay: Antiamnesic activity in po dosed assessed as inhibition of Scopolamine-induced amnesic deficit administered 3 hrs before Scopolamine challenge by step-down passive avoidance test; assay type: functional, organism-based; settings: Wistar
Cynomolgus monkey [23] = assay: Liver blood flow in cynomolgus monkey at 0.125 mg/kg, iv and 0.5 mg/kg, po; assay type: ADME, organism-based, Macaca fascicularis; settings: in vivo
Rattus norvegicus [24] = assay: Cognitive enhancing effect in po dosed Lister Hooded rat assessed as reversal of 24 hrs delay-induced retention deficit behavior by novel object recognition assay; assay type: functional; settings: read-out: MED
[25] = Plasma protein binding in mouse at 1 ug/ml after 6 hrs by equilibrium dialysis method; assay type: ADME, cell-free; settings: read-out: PPB (converted)
[26] = Chemical stability of the compound; assay type: physicochemical
[27] = Blood clearance in Sprague-Dawley rat at 1 mg/kg, iv and 3 mg/kg, po; assay type: ADME, organism-based
Cynomolgus monkey [28] = assay: Cardiotoxicity in conscious cynomolgus monkey up to 2.5 mg/kg, po; assay type: toxicity, organism-based, Macaca fascicularis; set-up: dose 2.5 mg/kg, route oral; settings: in vivo
Glutamate receptor 2 [29] = molecular target: T1, Glutamate receptor 2; assay: Activation of human recombinant GluR2 flip isoform expressed in HEK293 cells assessed as increase of glutamate-induced inward current at 30 uM by whole cell voltage-clamp electrophysiology assay; assay type: cell-based
Cytochrome P450 2C9 = Cytochrome P450 2C9 (Homo sapiens, UniProt P11712)
Description: Inhibition of human CYP2C9 after 10 mins

[30] = Blood clearance in cynomolgus monkey at 0.125 mg/kg, iv and 0.5 mg/kg, po; assay type: ADME, organism-based, Macaca fascicularis
Canis familiaris = assay: Liver blood flow in Beagle dog at 0.125 mg/kg, iv and 0.5 mg/kg, po; assay type: ADME, organism-based, Canis lupus familiaris; settings: in vivo
Cytochrome P450 2C19 = Cytochrome P450 2C19 (Homo sapiens, UniProt P33261)
Description: Inhibition of human CYP2C19 after 10 mins

Brain = assay: Brain tissue binding in rat at 1 ug/ml after 6 hrs by equilibrium dialysis method; assay type: ADME, tissue-based
Homo sapiens [31] = assay: Toxicity in human at 0.25 to 6 mg/kg administered as single dose; assay type: organism-based; set-up: dose 0.25-6 mg/kg; settings: in vivo
Rattus norvegicus [32] = assay: Liver blood flow in Sprague-Dawley rat at 1 mg/kg, iv and 3 mg/kg, po; assay type: ADME, organism-based; settings: in vivo
[33] = Cmax in Sprague-Dawley rat at 3 mg/kg, po; assay type: ADME, organism-based; set-up: dose 3 mg/kg, route oral; settings: in vivo

T1 sequence (P42262 whole entry, canonical isoform): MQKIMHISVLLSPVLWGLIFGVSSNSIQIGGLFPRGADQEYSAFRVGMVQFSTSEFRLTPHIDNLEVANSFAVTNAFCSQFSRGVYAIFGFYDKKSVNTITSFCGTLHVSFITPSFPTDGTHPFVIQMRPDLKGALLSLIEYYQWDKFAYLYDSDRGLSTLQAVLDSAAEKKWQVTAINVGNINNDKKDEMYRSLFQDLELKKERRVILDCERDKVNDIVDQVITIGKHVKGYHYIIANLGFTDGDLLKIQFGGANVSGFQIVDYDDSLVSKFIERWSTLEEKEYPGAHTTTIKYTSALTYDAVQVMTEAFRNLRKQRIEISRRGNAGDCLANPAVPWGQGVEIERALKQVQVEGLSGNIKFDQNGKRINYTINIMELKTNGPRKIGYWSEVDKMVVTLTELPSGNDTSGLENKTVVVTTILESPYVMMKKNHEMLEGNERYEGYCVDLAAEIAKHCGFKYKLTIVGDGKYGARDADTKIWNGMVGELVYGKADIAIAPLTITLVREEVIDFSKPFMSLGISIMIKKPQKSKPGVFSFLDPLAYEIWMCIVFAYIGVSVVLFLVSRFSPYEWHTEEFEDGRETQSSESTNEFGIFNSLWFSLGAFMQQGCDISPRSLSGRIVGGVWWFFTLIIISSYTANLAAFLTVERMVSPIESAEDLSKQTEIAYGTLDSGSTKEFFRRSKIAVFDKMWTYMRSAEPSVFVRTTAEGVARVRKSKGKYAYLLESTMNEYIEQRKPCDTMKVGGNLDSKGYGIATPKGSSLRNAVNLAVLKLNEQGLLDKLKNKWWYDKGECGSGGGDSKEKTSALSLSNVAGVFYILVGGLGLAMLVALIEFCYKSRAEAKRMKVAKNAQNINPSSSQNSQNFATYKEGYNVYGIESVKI
Chain of Cytochrome P450 2C19 (P33261 whole entry): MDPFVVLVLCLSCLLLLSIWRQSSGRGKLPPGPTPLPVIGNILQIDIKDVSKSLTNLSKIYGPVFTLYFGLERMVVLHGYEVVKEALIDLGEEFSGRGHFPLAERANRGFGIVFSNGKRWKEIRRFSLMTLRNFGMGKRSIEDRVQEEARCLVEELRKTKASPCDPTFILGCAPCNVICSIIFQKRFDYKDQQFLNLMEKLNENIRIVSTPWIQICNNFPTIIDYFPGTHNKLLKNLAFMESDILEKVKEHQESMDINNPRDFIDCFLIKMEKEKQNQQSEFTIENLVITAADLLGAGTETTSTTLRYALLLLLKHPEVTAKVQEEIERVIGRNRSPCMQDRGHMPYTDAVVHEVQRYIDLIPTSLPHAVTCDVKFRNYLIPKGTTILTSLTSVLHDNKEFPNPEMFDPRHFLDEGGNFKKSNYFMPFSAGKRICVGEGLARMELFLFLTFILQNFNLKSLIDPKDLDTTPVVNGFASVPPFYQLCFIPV
Chain of Cytochrome P450 2D6 (P10635 whole entry): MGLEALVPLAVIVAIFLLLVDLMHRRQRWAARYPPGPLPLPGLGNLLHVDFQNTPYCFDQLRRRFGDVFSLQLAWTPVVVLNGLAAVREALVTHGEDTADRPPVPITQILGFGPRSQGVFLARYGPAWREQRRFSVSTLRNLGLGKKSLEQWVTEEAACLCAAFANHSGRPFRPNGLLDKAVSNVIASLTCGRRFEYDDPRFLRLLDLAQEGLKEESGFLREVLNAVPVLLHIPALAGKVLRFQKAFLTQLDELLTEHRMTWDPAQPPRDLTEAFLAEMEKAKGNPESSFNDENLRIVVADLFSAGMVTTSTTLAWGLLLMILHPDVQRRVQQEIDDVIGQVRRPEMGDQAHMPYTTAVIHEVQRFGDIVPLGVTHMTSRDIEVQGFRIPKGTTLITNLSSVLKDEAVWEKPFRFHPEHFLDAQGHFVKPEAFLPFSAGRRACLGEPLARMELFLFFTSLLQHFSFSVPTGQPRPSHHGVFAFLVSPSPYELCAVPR
Chain of Cytochrome P450 2C9 (P11712 whole entry): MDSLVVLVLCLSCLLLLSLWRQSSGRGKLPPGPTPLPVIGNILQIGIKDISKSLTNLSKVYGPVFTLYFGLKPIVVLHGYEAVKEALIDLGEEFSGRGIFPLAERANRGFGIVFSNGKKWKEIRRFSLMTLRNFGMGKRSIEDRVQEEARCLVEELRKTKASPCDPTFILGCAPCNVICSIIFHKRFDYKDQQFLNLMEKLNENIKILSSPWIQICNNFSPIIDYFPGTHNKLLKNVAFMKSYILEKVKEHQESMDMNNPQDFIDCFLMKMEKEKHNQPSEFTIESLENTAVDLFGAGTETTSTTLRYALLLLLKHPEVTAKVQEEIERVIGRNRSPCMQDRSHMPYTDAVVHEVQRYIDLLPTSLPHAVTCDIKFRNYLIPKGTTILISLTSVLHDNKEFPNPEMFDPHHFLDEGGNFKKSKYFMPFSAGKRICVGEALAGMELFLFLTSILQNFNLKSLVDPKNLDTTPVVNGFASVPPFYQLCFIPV

CC(C)S(=O)(=O)N[C@H]1Cc2ccc(-c3ccc(F)nc3)cc2C1 [GSK-729327]
Vd [1]: 4.8 L/kg | inhibition (Rattus norvegicus [2]): inactive | IC50 (Liver microsomes): 0.7 µM | bioavailability [3]: 51% | Activity (Glutamate receptor 2 [4]): Dose-dependent effect | half-life [5]: 15 h | half-life [6]: 6.6 h | IC50 (Cytochrome P450 2D6): > 10 µM | Drug uptake (Blood): 81 ng/mL | fraction unbound at 6 h, 1 ug/ml [7]: 0.205 | solubility thermodynamic [8]: 100 µg/mL (≈ 299 µM) | Cmax [9]: 115 ng/mL | IC50 (Cytochrome P450 1A2): > 10 µM | half-life [10]: 5 h | solubility thermodynamic [11]: 100 µg/mL (≈ 299 µM) | Activity (Homo sapiens [12]): Non-toxic | Vd [13]: 2.4 L/kg | solubility thermodynamic [14]: 100 µg/mL (≈ 299 µM) | clearance [15]: 3.4 mL/min/kg | half-life [16]: 5 h | bioavailability [17]: 61% | Tmax [18]: 3 h | fraction unbound at 6 h, 1 ug/ml [19]: 0.152 | Activity [20]: Not Active | half-life [21]: 107 h | Activity (Rattus norvegicus [22]): Dose-dependent effect | LBF (Cynomolgus monkey [23]): 3% | minimal effective dose (Rattus norvegicus [24]): 0.3 mg/kg | fraction unbound at 6 h, 1 ug/ml [25]: 0.15 | Stability [26]: Stable | clearance [27]: 5.4 mL/min/kg | Activity (Cynomolgus monkey [28]): Non-toxic | Activity (Glutamate receptor 2 [29]): Active | IC50 (Cytochrome P450 2C9): > 10 µM | clearance [30]: 1.4 mL/min/kg | LBF (Canis familiaris): 11% | IC50 (Cytochrome P450 2C19): > 10 µM | Activity (Brain): 97.4% | Activity (Homo sapiens [31]): Non-toxic | LBF (Rattus norvegicus [32]): 6% | Cmax [33]: 416 ng/mL
